Patent publication US20140329868A1, “METHODS FOR TREATING HYPERTENSION” (TAKEDA PHARMACEUTICALS U.S.A., INC., priority 2005, published 2014)

What was measured:
[1] = tested on: subjects having a systolic BP≧160 mmHg or diastolic BP≧95 mmHg (elevated blood pressure); assay: Example 1: blood pressure change in subjects with elevated blood pressure, none taking antihypertensive agents at baseline (two double-blind studies); type: in vivo, human; conditions: 300/100 mg QD
Description: A total of 103 subjects (9 in the placebo group, 26 in each the 2-[3-cyano-4-(2-methylpropoxy)phenyl]-4-methylthiazole-5-carboxylic acid (hereinafter referred to as “febuxostat”) 80 mg and 120 mg once daily (hereinafter referred to as “QD”) groups, 10 in the febuxostat 240 mg QD group and 32 in the 4-hydroxy-3,4-pyrazolopyrimidine (hereinafter referred to as “allopurinol”) 300/100 mg QD group), having a systolic BP≧160 mmHg or diastolic BP≧95 mmHg, and thus considered to have “elevated blood pressure”, were examined. Allopurinol […] xanthine oxidoreductase inhibitor.
None of the above subjects were taking any antihypertensive agents at the baseline (start) of the study. These […] subjects were part of two (2) double-blind (hereinafter referred to as “DB”) studies. One study was of 28 weeks in duration. During this time, the subjects received 80 mg, 120 mg or 240 mg QD of febuxostat, placebo or allopurinol 300 or 100 mg QD, depending on the subject's renal function. The second study was 52 weeks in duration. During this time, the subjects received 80 mg or 120 mg QD of febuxostat or allopurinol 300 mg QD.

[2] = tested on: subjects having a systolic BP≧160 mmHg or diastolic BP≧95 mmHg (elevated blood pressure); assay: Example 3: blood pressure change in subjects with elevated blood pressure, none taking angiotensin antagonists (two double-blind studies); type: in vivo, human; conditions: 300/100 mg QD
Description: None of these subjects were taking any angiotensin antagonists, but might have been taking some other type of antihypertensive drug at the baseline (start) of the study. These 187 subjects were part of two (2) DB studies. One study was of 28 weeks in duration during which subjects received 80 mg, 120 mg or 240 mg QD of febuxostat or placebo or allopurinol 300 or 100 mg QD, depending on the subject's renal function. The second study was of 52 weeks in duration during which subjects received 80 mg or 120 mg QD of febuxostat or allopurinol 300 mg QD. Of these 187 subjects, all completed 4 weeks of treatment and 132 completed 28 weeks of treatment. A total of 52 weeks of treatment was completed by 15 subjects in the febuxostat 80 mg QD group, 11 in the febuxostat 120 mg QD group and 22 in the allopurinol 300/100 mg QD group. Because of the shorter duration of one of the 2 DB studies, no subject in the placebo and febuxostat 240 mg QD groups were treated for 52 weeks.

[3] = tested on: subjects having a systolic BP≧160 mmHg or diastolic BP≧95 mmHg (elevated blood pressure); assay: Example 2: blood pressure change in subjects with elevated blood pressure, none taking angiotensin-converting enzyme inhibitors (two double-blind studies); type: in vivo, human; conditions: 300/100 mg QD
Description: None of these subjects were taking any angiotensin-coverting enzyme inhibitors, but might have been taking some other type of antihypertensive drug at the baseline (start) of the study. These 158 subjects were part of two (2) DB studies. One study was of 28 weeks in duration during which subjects received 80 mg, 120 mg or 240 mg QD of febuxostat or placebo or allopurinol 300 or 100 mg QD, depending on the subject's renal function. The second study was 52 weeks in duration during which subjects received 80 mg or 120 mg QD of febuxostat or allopurinol 300 mg QD. […] A total of 52 weeks of treatment was completed by 15 subjects in the febuxostat 80 mg QD group, 9 in the febuxostat 120 mg QD group and 17 in the allopurinol 300/100 mg QD group. Because of the shorter duration of one of the two DB studies, no subject in the placebo and febuxostat 240 mg QD groups was treated for 52 weeks.

[4] = biological target: T1, purine nucleotide phosphorylase (Homo sapiens, UniProt P00491); conditions: at a therapeutically effective amount in a subject; stated as known; cited from earlier work
T1 sequence (P00491 1-289): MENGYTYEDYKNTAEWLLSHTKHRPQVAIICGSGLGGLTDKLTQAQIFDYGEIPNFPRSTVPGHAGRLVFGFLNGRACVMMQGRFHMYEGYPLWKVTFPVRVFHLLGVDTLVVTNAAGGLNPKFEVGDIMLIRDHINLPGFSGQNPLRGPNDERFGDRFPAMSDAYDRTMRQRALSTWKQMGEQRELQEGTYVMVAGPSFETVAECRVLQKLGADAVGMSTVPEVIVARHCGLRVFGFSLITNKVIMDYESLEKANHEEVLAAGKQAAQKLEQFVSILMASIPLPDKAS

[5] = biological target: orotidine-5-monophosphate decarboxylase (Homo sapiens, UniProt P11172); conditions: at a therapeutically effective amount in a subject; stated as known; cited from earlier work
orotidine-5-monophosphate decarboxylase, sequence (P11172 whole entry): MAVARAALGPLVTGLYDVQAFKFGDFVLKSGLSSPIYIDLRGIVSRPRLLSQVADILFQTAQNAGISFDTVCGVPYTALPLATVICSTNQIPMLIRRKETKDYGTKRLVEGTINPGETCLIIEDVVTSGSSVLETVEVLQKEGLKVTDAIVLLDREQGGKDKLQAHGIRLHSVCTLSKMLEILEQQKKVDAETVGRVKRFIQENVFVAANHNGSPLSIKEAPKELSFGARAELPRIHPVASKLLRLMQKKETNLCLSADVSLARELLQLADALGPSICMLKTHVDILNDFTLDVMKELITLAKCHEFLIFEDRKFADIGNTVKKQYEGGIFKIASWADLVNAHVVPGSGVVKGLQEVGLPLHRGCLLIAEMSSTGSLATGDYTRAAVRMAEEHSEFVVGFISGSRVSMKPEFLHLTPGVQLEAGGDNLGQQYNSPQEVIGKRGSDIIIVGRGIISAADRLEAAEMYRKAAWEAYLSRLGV

SMILES: Oc1ncnc2[nH]ncc12 [allopurinol, 4-hydroxy-3,4-pyrazolopyrimidine]
- mean change from baseline for diastolic BP ([1]; after 4 weeks of treatment): −6.3 mmHg
- mean change from baseline for mean arterial BP ([1]; after 4 weeks of treatment): −6.8 mmHg
- mean change from baseline for systolic BP ([1]; after 4 weeks of treatment): −7.7 mmHg
- mean change from baseline for diastolic BP ([1]; after 28 weeks of treatment): −8.2 mmHg
- mean change from baseline for mean arterial BP ([1]; after 28 weeks of treatment): −7.8 mmHg
- mean change from baseline for systolic BP ([1]; after 28 weeks of treatment): −7.0 mmHg
- mean change from baseline for diastolic BP ([1]; after 52 weeks of treatment): −10.9 mmHg
- mean change from baseline for mean arterial BP ([1]; after 52 weeks of treatment): −10.4 mmHg
- mean change from baseline for systolic BP ([1]; after 52 weeks of treatment): −9.4 mmHg
- mean change from baseline for diastolic BP ([2]; after 4 weeks of treatment): −5.7 mmHg
- mean change from baseline for mean arterial BP ([2]; after 4 weeks of treatment): −6.1 mmHg
- mean change from baseline for systolic BP ([2]; after 4 weeks of treatment): −7.0 mmHg
- mean change from baseline for diastolic BP ([2]; after 28 weeks of treatment): −8.7 mmHg
- mean change from baseline for mean arterial BP ([2]; after 28 weeks of treatment): −8.8 mmHg
- mean change from baseline for systolic BP ([2]; after 28 weeks of treatment): −9.0 mmHg
- mean change from baseline for diastolic BP ([2]; after 52 weeks of treatment): −11.6 mmHg
- mean change from baseline for mean arterial BP ([2]; after 52 weeks of treatment): −11.1 mmHg
- mean change from baseline for systolic BP ([2]; after 52 weeks of treatment): −10.0 mmHg
- mean change from baseline for diastolic BP ([3]; after 4 weeks of treatment): −6.7 mmHg
- mean change from baseline for mean arterial BP ([3]; after 4 weeks of treatment): −6.7 mmHg
- mean change from baseline for systolic BP ([3]; after 4 weeks of treatment): −6.6 mmHg
- mean change from baseline for diastolic BP ([3]; after 28 weeks of treatment): −10.1 mmHg
- mean change from baseline for mean arterial BP ([3]; after 28 weeks of treatment): −9.8 mmHg
- mean change from baseline for systolic BP ([3]; after 28 weeks of treatment): −9.1 mmHg
- mean change from baseline for diastolic BP ([3]; after 52 weeks of treatment): −11.4 mmHg
- mean change from baseline for mean arterial BP ([3]; after 52 weeks of treatment): −10.8 mmHg
- mean change from baseline for systolic BP ([3]; after 52 weeks of treatment): −9.5 mmHg
- effect on the activity of purine nucleotide phosphorylase [4]: has an effect
- effect on the activity of orotidine-5-monophosphate decarboxylase [5]: has an effect
